Data as given in patent US9751886B2, “4-amino-6-phenyl-6,7-dihydro[1,2,3]triazolo[1,5-A]pyrazine derivatives as inhibitors of beta-secretase (BACE)” (Janssen Pharmaceutica NV, priority 2013, dated 2017).

What was measured:
[1] = target: T1, recombinant BACE1 protein (Homo sapiens (Human), UniProt P56817); experiment: BACE1 Biochemical FRET based assay - Method 2; conditions: 0.04 μg/ml BACE1, 20 μM substrate, 450 min, pH 5.0
From the text: (§1) This assay is a Fluorescence Resonance Energy Transfer Assay (FRET) based assay. The substrate for this assay is an APP derived 13 amino acids peptide that contains the ‘Swedish’ Lys-Met/Asn-Leu mutation of the amyloid precursor protein (APP) beta-secretase cleavage site. This substrate also contains two fluorophores: (7-methoxycoumarin-4-yl) acetic acid (Mca) is a fluorescent donor with excitation wavelength at 320 nm and emission at 405 nm and 2,4-Dinitrophenyl (Dnp) is a proprietary quencher acceptor. […] Upon cleavage by BACE1, the fluorophore Mca is separated from the quenching group Dnp, restoring the full fluorescence yield of the donor. The increase in fluorescence is linearly related to the rate of proteolysis.
Briefly in a 384-well format recombinant BACE1 protein in a final concentration of 0.04 μg/ml is incubated for 450 minutes at room temperature with 20 μM substrate in incubation buffer (50 mM Citrate buffer pH 5.0, 0.05% PEG) in the presence of compound or DMSO. Next the amount of proteolysis is directly measured by fluorescence measurement (excitation at 320 nm and emission at 405 nm) at different incubation times (0, 30, 60, 90, 120 and 450 min). For every experiment a time curve (every 30 min between 0 min and 120 min) is used to determine the time where we find the lowest basal signal of the high control. The signal at this time (Tx) is used to subtract from the signal at 450 min. Results are expressed in RFU, as difference between T450 and Tx.

[2] = tested on: Abeta total secreted by human neuroblastoma SKNBE2 cells expressing wild type hAPP695; experiment: BACE1 cellular αLisa assay in SKNBE2 cells, Abeta total; format: cell-based; conditions: 18 hours incubation
Description: (§2) In two αLisa assays the levels of Abeta total and Abeta 1-42 produced and secreted into the medium of human neuroblastoma SKNBE2 cells are quantified. The assay is based on the human neuroblastoma SKNBE2 expressing the wild type Amyloid Precursor Protein (hAPP695). The compounds are diluted and added to these cells, incubated for 18 hours and then measurements of Abeta 1-42 and Abeta total are taken. Abeta total and Abeta 1-42 are measured by sandwich αLisa. αLisa is a sandwich assay using biotinylated antibody AbN/25 attached to streptavidin coated beads and antibody Ab4G8 or cAb42/26 conjugated acceptor beads for the detection of Abeta total and Abeta 1-42 respectively. In the presence of Abeta total or Abeta 1-42, the beads come into close proximity. The excitation of the donor beads provokes the release of singlet oxygen molecules that trigger a cascade of energy transfer in the acceptor beads, resulting in light emission.

[3] = target: recombinant BACE2 protein (Homo sapiens (Human), UniProt Q9Y5Z0); experiment: BACE2 Biochemical FRET based assay; conditions: 0.4 μg/ml BACE2, 10 μM substrate, 450 min, pH 5.0
From the text: as §1, with “assay” for “assay is an APP derived 13 amino acids peptide that”, “the beta-secretase,” for “BACE1,”
Briefly in a 384-well format recombinant BACE2 protein in a final concentration of 0.4 μg/ml is incubated for 450 minutes at room temperature with 10 μM substrate in incubation buffer (50 mM Citrate buffer pH 5.0, 0.05% PEG, no DMSO) in the absence or presence of compound. Next the amount of proteolysis is directly measured by fluorescence measurement at T=0 and T=450 (excitation at 320 nm and emission at 405 nm). Results are expressed in RFU (Relative Fluorescence Units), as difference between T450 and TO.

[4] = target: T1, recombinant BACE1 protein; experiment: BACE1 Biochemical FRET based assay - Method 1; conditions: 1 μg/ml BACE1, 10 μM substrate, 120 min, pH 5.0
From the text: as §1
Briefly in a 384-well format recombinant BACE1 protein in a final concentration of 1 μg/ml is incubated for 120 minutes at room temperature with […] substrate in incubation buffer (40 mM Citrate buffer pH 5.0, 0.04% PEG, 4% DMSO) in the absence or presence of compound. Next the amount of proteolysis is directly measured by fluorescence measurement at T=0 and T=120 (excitation at 320 nm and emission at 405 nm). Results are expressed in RFU (Relative Fluorescence Units), as difference between T120 and TO.

[5] = tested on: Abeta 1-42 secreted by human neuroblastoma SKNBE2 cells expressing wild type hAPP695; experiment: BACE1 cellular αLisa assay in SKNBE2 cells, Abeta 1-42; format: cell-based; conditions: 18 hours incubation
Description: as §2

T1 sequence (P56817 46-501): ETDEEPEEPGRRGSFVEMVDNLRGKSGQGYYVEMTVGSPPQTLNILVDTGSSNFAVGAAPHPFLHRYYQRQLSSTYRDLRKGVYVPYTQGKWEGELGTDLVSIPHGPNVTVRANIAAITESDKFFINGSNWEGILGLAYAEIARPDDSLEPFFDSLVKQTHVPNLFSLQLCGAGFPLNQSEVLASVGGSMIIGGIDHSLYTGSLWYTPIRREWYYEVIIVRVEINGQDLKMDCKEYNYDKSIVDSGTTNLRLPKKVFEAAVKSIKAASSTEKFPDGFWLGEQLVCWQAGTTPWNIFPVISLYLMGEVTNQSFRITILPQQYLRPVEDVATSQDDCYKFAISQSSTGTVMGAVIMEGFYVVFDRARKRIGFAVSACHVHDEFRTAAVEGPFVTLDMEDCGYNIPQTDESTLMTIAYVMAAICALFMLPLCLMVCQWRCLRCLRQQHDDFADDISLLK
Chain of recombinant BACE2 protein (Q9Y5Z0 63-518): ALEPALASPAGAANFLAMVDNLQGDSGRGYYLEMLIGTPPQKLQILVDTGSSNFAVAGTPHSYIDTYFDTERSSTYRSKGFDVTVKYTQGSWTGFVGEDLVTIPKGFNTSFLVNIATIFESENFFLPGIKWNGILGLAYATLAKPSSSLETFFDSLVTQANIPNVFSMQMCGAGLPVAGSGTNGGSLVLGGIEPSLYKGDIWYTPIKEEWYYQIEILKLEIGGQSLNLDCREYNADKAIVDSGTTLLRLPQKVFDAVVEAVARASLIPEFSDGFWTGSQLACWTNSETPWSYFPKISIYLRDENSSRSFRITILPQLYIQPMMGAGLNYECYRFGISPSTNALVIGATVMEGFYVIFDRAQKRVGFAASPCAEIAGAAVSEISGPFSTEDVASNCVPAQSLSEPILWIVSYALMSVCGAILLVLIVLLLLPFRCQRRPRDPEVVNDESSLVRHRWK

| BACE1 Biochemical FRET based assay - Method 2 pIC50 [1] | Cellular αLisa assay in SKNBE2 cells Abetatotal pIC50 [2] | BACE2 Biochemical FRET based assay pIC50 [3] | BACE1 Biochemical FRET based assay - Method 1 pIC50 [4] | Cellular αLisa assay in SKNBE2 cells Abeta 42 pIC50 [5] | IC50 ([2]; Homo sapiens, read-out: Cellular αLisa assay in SKNBE2 cells Abetatotal pIC50 (converted)) [nM] | IC50 ([4]; read-out: BACE1 Biochemical FRET based assay - Method 1 pIC50 (converted)) [nM] | IC50 ([5]; Homo sapiens, read-out: Cellular αLisa assay in SKNBE2 cells Abeta 42 pIC50 (converted)) [nM] | Structure (SMILES) |
| --- | --- | --- | --- | --- | --- | --- | --- | --- |
| 8.75 | 8.88 | 8.56 | 8.76 | 8.77 |  |  |  | C[C@@]1(c2cc(NC(=O)c3ccc(Cl)cn3)ccc2F)Cn2nncc2C(N)=N1 [Compound 4] |
| 8.69 |  | 7.81 |  |  | 1.62 | 2.04 | 1.82 | COc1cnc(C(=O)Nc2ccc(F)c([C@]3(C)Cn4nncc4C(N)=N3)c2)cn1 [Compound 3, N-{3-[(6R)-4-Amino-6-methyl-6,7-dihydro[1,2,3]triazolo[1,5-a]pyrazin-6-yl]-4-fluorophenyl}-5-methoxypyrazine-2-carboxamide] |
